Source: US8273754B2, “Substituted 1H-pyrazolo[3,4-D]pyrimidine-6-amine compounds” (ArQule, Inc., priority 2008, dated 2012)
Like-named read-outs stand apart in the source and are kept apart here.

System: cancer cells
Assay: MTS cell growth inhibition assay (72 hours)
Assay type: cell-based
Method in brief: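 Growth inhibition read as formazan absorbance at 492 nm after 4 h MTS/PMS, following 72 h compound exposure at 37 °C in 1% FBS DMEM (cells pre-seeded 18 h). IC50 = 50% absorbance reduction; inhibition graded in bands.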

[1] = Homo sapiens, DLD-1, 72 h, DLD-1 cells, read-out: DLD-1 MTS 72 hr at 10 μM
[2] = Homo sapiens, KATO III, 72 h, KATO III cells, read-out: KATO III MTS 72 hr at 10 μM
[3] = Homo sapiens, MDA-MB-231, 72 h, MDA-MB-231 cells, read-out: MDA-MB-231 MTS 72 hr at 10 μM
[4] = Homo sapiens, NCI-H1299, 72 h, NCI-H1299 cells, read-out: NCI-H1299 MTS 72 hr at 10 μM
[5] = PaCa-2, 72 h, PACA-2 cells, read-out: PACA-2 MTS 72 hr at 10 μM

Nc1nc(NC2Cc3ccccc3N(S(=O)(=O)c3cc(Cl)ccc3Cl)C2)c2cn[nH]c2n1 (stereo not drawn) [Compound 32, N4-(1-(2,5-dichlorophenylsulfonyl)-1,2,3,4-tetrahydroquinolin-3-yl)-1H-pyrazolo[3,4-d]pyrimidine-4,6-diamine]
inhibition at 10 µM [1]: 50 to 79% | inhibition at 10 µM [2]: > 79% | inhibition at 10 µM [3]: < 50% | inhibition at 10 µM [4]: < 50% | inhibition at 10 µM [5]: < 50%

Nc1nc(NC2Cc3ccccc3N(S(=O)(=O)c3cccc(NC(=O)Nc4cccc(Cl)c4)c3)C2)c2cn[nH]c2n1 (stereo not drawn) [Compound 201, 1-[3-({3-[(6-amino-1H-pyrazolo[3,4-d]pyrimidin-4-yl)amino]-3,4-dihydroquinolin-1(2H)-yl}sulfonyl)phenyl]-3-(3-chlorophenyl)urea]
inhibition at 10 µM [1]: > 79% | inhibition at 10 µM [2]: > 79% | inhibition at 10 µM [3]: > 79% | inhibition at 10 µM [4]: > 79% | inhibition at 10 µM [5]: > 79%

Cc1cccc(C(=O)N2CC(Nc3nc(N)nc4[nH]ncc34)Cc3ccccc32)c1 (stereo not drawn) [Compound 82, (3-(6-amino-1H-pyrazolo[3,4-d]pyrimidin-4-ylamino)-3,4-dihydroquinolin-1(2H)-yl)(m-tolyl)methanone]
inhibition at 10 µM [1]: < 50% | inhibition at 10 µM [2]: < 50% | inhibition at 10 µM [3]: < 50% | inhibition at 10 µM [4]: < 50% | inhibition at 10 µM [5]: < 50%

Nc1nc(NC2Cc3ccccc3N(S(=O)(=O)c3ccc4c(c3)OCCO4)C2)c2cn[nH]c2n1 (stereo not drawn) [Compound 76, N4-(1-(2,3-dihydrobenzo[b][1,4]dioxin-6-ylsulfonyl)-1,2,3,4-tetrahydroquinolin-3-yl)-1H-pyrazolo[3,4-d]pyrimidine-4,6-diamine]
inhibition at 10 µM [1]: < 50% | inhibition at 10 µM [2]: < 50% | inhibition at 10 µM [3]: < 50% | inhibition at 10 µM [4]: < 50% | inhibition at 10 µM [5]: 50 to 79%

Nc1nc(NC2CCN(S(=O)(=O)c3ccc(Cl)cc3)c3ccccc3C2)c2cn[nH]c2n1 (stereo not drawn) [Compound 171, N4-{1-[(4-chlorophenyl)sulfonyl]-2,3,4,5-tetrahydro-1H-1-benzazepin-4-yl}-1H-pyrazolo[3,4-d]pyrimidine-4,6-diamine]
inhibition at 10 µM [1]: < 50% | inhibition at 10 µM [2]: < 50% | inhibition at 10 µM [3]: < 50% | inhibition at 10 µM [4]: < 50% | inhibition at 10 µM [5]: < 50%

Nc1nc(NC2Cc3ccccc3N(S(=O)(=O)c3ccc(Br)c(F)c3)C2)c2cn[nH]c2n1 (stereo not drawn) [Compound 62, N4-(1-(4-bromo-3-fluorophenylsulfonyl)-1,2,3,4-tetrahydroquinolin-3-yl)-1H-pyrazolo[3,4-d]pyrimidine-4,6-diamine]
inhibition at 10 µM [1]: < 50% | inhibition at 10 µM [2]: < 50% | inhibition at 10 µM [3]: < 50% | inhibition at 10 µM [4]: < 50% | inhibition at 10 µM [5]: < 50%

Nc1nc(NC2Cc3ccccc3N(S(=O)(=O)c3cccc(NC(=O)Nc4c(Cl)cccc4Cl)c3)C2)c2cn[nH]c2n1 (stereo not drawn) [Compound 208, 1-[3-({3-[(6-amino-1H-pyrazolo[3,4-d]pyrimidin-4-yl)amino]-3,4-dihydroquinolin-1(2H)-yl}sulfonyl)phenyl]-3-(2,6-dichlorophenyl)urea]
inhibition at 10 µM [1]: < 50% | inhibition at 10 µM [2]: < 50% | inhibition at 10 µM [3]: < 50% | inhibition at 10 µM [4]: < 50% | inhibition at 10 µM [5]: 50 to 79%

CC(C)(C)c1ccc(OCC(=O)N2CC(Nc3nc(N)nc4[nH]ncc34)Cc3ccccc32)cc1 (stereo not drawn) [Compound 97, 1-(3-(6-amino-1H-pyrazolo[3,4-d]pyrimidin-4-ylamino)-3,4-dihydroquinolin-1(2H)-yl)-2-(4-tert-butylphenoxy)ethanone]
inhibition at 10 µM [1]: 50 to 79% | inhibition at 10 µM [2]: 50 to 79% | inhibition at 10 µM [3]: 50 to 79% | inhibition at 10 µM [4]: < 50% | inhibition at 10 µM [5]: < 50%

Nc1nc(NC2Cc3ccccc3N(Cc3ccc4nccnc4c3)C2)c2cn[nH]c2n1 (stereo not drawn) [Compound 133, N4-[1-(quinoxalin-6-ylmethyl)-1,2,3,4-tetrahydroquinolin-3-yl]-1H-pyrazolo[3,4-d]pyrimidine-4,6-diamine]
inhibition at 10 µM [1]: < 50% | inhibition at 10 µM [2]: < 50% | inhibition at 10 µM [3]: < 50% | inhibition at 10 µM [4]: < 50% | inhibition at 10 µM [5]: < 50%
